# Assay results from patent US7767659B2, “Synthesis of naturally occurring ecteinascidins and related compounds” (Pharma Mar, S.A., priority 2002, dated 2010).
# Read-outs that look alike come from different tables or passages of the source.
# Experiments:
# A-549 = experiment: cells
# Experimental: (§1) This form of the assay employs 96 well cell culture microplates of 9 mm diameter (Faircloth, 1988; Mosmann, 1983). Most of the cell lines are obtained from American Type Culture Collection (ATCC) derived from different human cancer types.
# (§2) Cells are maintained in RPMI 1640 10% FBS, supplemented with 0.1 g/l penicillin and 0.1 g/l streptomycin sulfate and then incubated at 37° C., 5% CO2 and 98% humidity. For the experiments, cells were harvested from subconfluent cultures using trypsin and resuspended in fresh medium before plating.
# (§3) Cells are seeded in 96 well microtiter plates, at 5×10^3 cells per well in aliquots of 195 μl medium, and they are allowed to attach to the plate surface by growing in drug free medium for 18 hours. Afterward, samples are added in aliquots of 5 μl in a ranging from 10 to 10^−8 μg/ml, dissolved in DMSO/EtOH/PBS (0.5:0.5:99). After 48 hours exposure, the antitumor effect are measured by the SRB methodology: cells are fixed by adding 50 μl of cold 50% (wt/vol) trichloroacetic acid (TCA) and incubating for 60 minutes at 4° C. Plates are washed with deionized water and dried. One hundred μl of SRB solution (0.4% wt/vol in 1% acetic acid) is added to each microtiter well and incubated for 10 minutes at room temperature. Unbound SRB is removed by washing with 1% acetic acid. Plates are air dried and bound stain is solubilzed with Tris buffer. Optical densities are read on a automated spectrophotometric plate reader at a single wavelength of 490 nm.
# (§4) The values for mean +/− SD of data from triplicate wells are calculated. Some parameters for cellular responses can be calculated: GI=growth inhibition, TGI=total growth inhibition (cytostatic effect) and LC=cell killing (cytotoxic effect).
# HT-29 = experiment: cells
# Experimental: as §1, §2, §3, §4
# LoVo = experiment: cells; details: Homo sapiens, LoVo, 48 h
# Experimental: as §1, §2, §3, §4
# DU-145 = experiment: Inhibition of cells growth by colorimetric assay (SRB); details: Homo sapiens, DU-145, 48 h
# Experimental: as §1, §2, §3, §4
# HeLa-APL = experiment: as above; details: Homo sapiens, 48 h
# Experimental: as §1, §2, §3, §4
# HeLa = experiment: as above; details: Homo sapiens, HeLa, 48 h
# Experimental: as §1, §2, §3, §4
# IGROV-1 = experiment: as above; details: Homo sapiens, IGROV-1, 48 h
# Experimental: as §1, §2, §3, §4
# IGROV-ET = experiment: as above; details: Homo sapiens, 48 h
# Experimental: as §1, §2, §3, §4
# K-562 = experiment: as above; details: Homo sapiens, K562, 48 h
# Experimental: as §1, §2, §3, §4
# LNCaP = experiment: as above; details: Homo sapiens, LNCaP, 48 h
# Experimental: as §1, §2, §3, §4
# LoVo-Dox = experiment: as above; details: Homo sapiens, 48 h
# Experimental: as §1, §2, §3, §4
# PANC-1 = experiment: as above; details: Homo sapiens, PANC-1, 48 h
# Experimental: as §1, §2, §3, §4
# SK-MEL-28 = experiment: as above; details: Homo sapiens, SK-MEL-28, 48 h
# Experimental: as §1, §2, §3, §4
# [1] = Homo sapiens, A549, 48 h, read-out: A549 GI50
# [2] = Homo sapiens, A549, 48 h, read-out: A549 LC50
# [3] = Homo sapiens, A549, 48 h, read-out: A549 TGI
# [4] = Homo sapiens, HT-29, 48 h, read-out: HT29 GI50
# [5] = Homo sapiens, HT-29, 48 h, read-out: HT29 LC50
# [6] = Homo sapiens, HT-29, 48 h, read-out: HT29 TGI
# [7] = Homo sapiens, A549, 48 h, read-out: GI50 A549
# [8] = Homo sapiens, A549, 48 h, read-out: LC50 A549
# [9] = Homo sapiens, A549, 48 h, read-out: TGI A549
# [10] = Homo sapiens, HT-29, 48 h, read-out: GI50 HT29
# [11] = Homo sapiens, HT-29, 48 h, read-out: LC50 HT29
# [12] = Homo sapiens, HT-29, 48 h, read-out: TGI HT29
smiles,measurement,setting,value
COCCOCOc1c(OC)c(C)cc2c1[C@@H]1C3CC4(O)C(=O)C(C)=C5OCOC5=C4[C@H](CNC(=O)[C@H](CSCC4c5ccccc5-c5ccccc54)NC(=O)OC(C)(C)C)N3[C@@H](C#N)[C@H](C2)N1C (stereo partly drawn) [compound 72],GI50,A-549; [1],51.9 nM
same,CC50,A-549; [2],4150 nM
same,IC (TGI),A-549; [3],104 nM
same,GI50,HT-29; [4],1040 nM
same,CC50,HT-29; [5],5190 nM
same,IC (TGI),HT-29; [6],1040 nM
COc1c(C)cc2c(c1O)[C@H]1N[C@@H](C2)[C@H](C#N)N2C1[C@@H]1SC[C@]3(NCCc4c3[nH]c3ccccc43)C(=O)OC[C@H]2c2c3c(c(C)c(OC(C)=O)c21)OCO3 (stereo partly drawn) [compound 59],GI50,A-549; [1],15.9 nM
same,CC50,A-549; [2],273 nM
same,IC (TGI),A-549; [3],48.5 nM
same,GI50,HT-29; [4],3.83 nM
same,CC50,HT-29; [5],4280 nM
same,IC (TGI),HT-29; [6],16 nM
same,GI50,LoVo; read-out: LOVO GI50,5.8 nM
same,CC50,LoVo; read-out: LOVO LC50,1190 nM
same,IC (TGI),LoVo; read-out: LOVO TGI,23.3 nM
same,GI50,DU-145; read-out: DU145 GI50,4.09 nM
same,CC50,DU-145; read-out: DU145 LC50,1640 nM
same,IC (TGI),DU-145; read-out: DU145 TGI,10.2 nM
same,GI50,HeLa-APL; read-out: HELA-APL GI50,3.32 nM
same,CC50,HeLa-APL; read-out: HELA-APL LC50,59.2 nM
same,IC (TGI),HeLa-APL; read-out: HELA-APL TGI,7.69 nM
same,GI50,HeLa; read-out: HELA GI50,2.44 nM
same,CC50,HeLa; read-out: HELA LC50,10.6 nM
same,IC (TGI),HeLa; read-out: HELA TGI,5.08 nM
same,GI50,IGROV-1; read-out: IGROV GI50,3.01 nM
same,CC50,IGROV-1; read-out: IGROV LC50,110 nM
same,IC (TGI),IGROV-1; read-out: IGROV TGI,7.33 nM
same,GI50,IGROV-ET; read-out: IGROV-ET GI50,4.48 nM
same,CC50,IGROV-ET; read-out: IGROV-ET LC50,3040 nM
same,IC (TGI),IGROV-ET; read-out: IGROV-ET TGI,107 nM
same,GI50,K-562; read-out: K562 GI50,1.8 nM
same,CC50,K-562; read-out: K562 LC50,3290 nM
same,IC (TGI),K-562; read-out: K562 TGI,9.83 nM
same,GI50,LNCaP; read-out: LNCAP GI50,1.03 nM
same,CC50,LNCaP; read-out: LNCAP LC50,6.43 nM
same,IC (TGI),LNCaP; read-out: LNCAP TGI,2.67 nM
same,GI50,LoVo-Dox; read-out: LOVO-DOX GI50,123 nM
same,CC50,LoVo-Dox; read-out: LOVO-DOX LC50,3930 nM
same,IC (TGI),LoVo-Dox; read-out: LOVO-DOX TGI,709 nM
same,GI50,PANC-1; read-out: PANC-1 GI50,4.76 nM
same,CC50,PANC-1; read-out: PANC-1 LC50,3750 nM
same,IC (TGI),PANC-1; read-out: PANC-1 TGI,42.3 nM
same,GI50,SK-MEL-28; read-out: MEL-28 GI50,3.56 nM
same,CC50,SK-MEL-28; read-out: MEL-28 LC50,3040 nM
same,IC (TGI),SK-MEL-28; read-out: MEL-28 TGI,11 nM
C=CCOc1c(C)c2c(c3c1CC1[C@H]4c5c(cc(C)c(OC)c5O)C[C@@H]([C@H](C#N)N1[C@H]3CO[Si](c1ccccc1)(c1ccccc1)C(C)(C)C)N4C)OCO2 (stereo partly drawn) [compound 3],GI50,A-549; [7],4180 nM
same,CC50,A-549; [8],13200 nM
same,IC (TGI),A-549; [9],13000 nM
same,GI50,HT-29; [10],4010 nM
same,CC50,HT-29; [11],13200 nM
same,IC (TGI),HT-29; [12],12300 nM
C=CCOc1c(C)c2c(c3c1CC1[C@@H]4N[C@@H](Cc5cc(C)c(OC)c(OCOCCOC)c54)[C@H](C#N)N1[C@H]3CO[Si](c1ccccc1)(c1ccccc1)C(C)(C)C)OCO2 (stereo partly drawn) [compound 5],GI50,A-549; [7],721 nM
same,CC50,A-549; [8],8410 nM
same,IC (TGI),A-549; [9],2400 nM
same,GI50,HT-29; [10],481 nM
same,CC50,HT-29; [11],6010 nM
same,IC (TGI),HT-29; [12],1200 nM
COc1cc2c(cc1O)CCN[C@]21C[S+]([O-])[C@@H]2c3c(OC(C)=O)c(C)c4c(c3[C@H](COC1=O)N1C2C2c3c(cc(C)c(OC)c3O)C[C@@H]([C@@H]1C#N)N2C)OCO4 (stereo partly drawn) [compound 17],GI50,A-549; [7],22.9 nM
same,CC50,A-549; [8],117 nM
same,IC (TGI),A-549; [9],52.1 nM
same,GI50,HT-29; [10],39.1 nM
same,CC50,HT-29; [11],12700 nM
same,IC (TGI),HT-29; [12],86 nM
C=CCOc1c(C)c2c(c3c1CC1[C@H]4c5c(cc(C)c(OC)c5O)C[C@@H]([C@H](C#N)N1[C@H]3CNC(=O)[C@H](CSCC1c3ccccc3-c3ccccc31)NC(=O)OC(C)(C)C)N4C)OCO2 (stereo partly drawn) [compound 69],GI50,A-549; [1],5570 nM
same,CC50,A-549; [2],55700 nM
same,IC (TGI),A-549; [3],22300 nM
same,GI50,HT-29; [4],1110 nM
same,CC50,HT-29; [5],11100 nM
same,IC (TGI),HT-29; [6],1110 nM
COCCOCOc1c(OC)c(C)cc2c1[C@H]1N[C@@H](C2)[C@H](C#N)N2C1CC1(O)C(=O)C(C)=C3OCOC3=C1[C@@H]2CO[Si](c1ccccc1)(c1ccccc1)C(C)(C)C (stereo partly drawn) [compound 7],TGI A549,"A-549; A549, SRB, 48 hours exposure",3.51E−06 Molar
same,GI50,"A-549; read-out: GI50 A549, A549, SRB, 48 hours exposure",1870 nM
same,CC50,"A-549; read-out: LC50 A549, A549, SRB, 48 hours exposure",6610 nM
same,TGI HT29,"HT-29; HT29, SRB, 48 hours exposure",2.40E−06 Molar
same,GI50,"HT-29; read-out: GI50 HT29, HT29, SRB, 48 hours exposure",918 nM
same,CC50,"HT-29; read-out: LC50 HT29, HT29, SRB, 48 hours exposure",5460 nM
